The values that follow come from patent US20050059639A1, “Ophthalmic compositions and method for treating eye discomfort and pain” (priority 2003, published 2005).

One data set deals with eye disorders. Nature of the data set: Estimate of ideal therapeutic eye drop concentration to relieve eye disorders. To be noted: estimate of ideal therapeutic concentration applied as eye drops to relieve eye disorders. It is filed as in vivo, human. The method, then:
(§1) The therapeutic concentrations of the preferred analogs are in the range of 10 to 80 μg/ml […], but concentrations as low as 0.1 μg/ml may elicit effects in sensitive individuals.
The potency of certain specific trialkyl phosphine oxides, e.g. isopropyl, sec-butyl, n-octyl-phosphine oxide, in relieving eye discomfort is exceptionally high, on the order of 0.001%. In such situations, an alternative preferred description of an effective unit dose is 0.01 mg/ml or 10 μg/ml, which is equivalent to 0.001% weight percent.

Data set [1] has as its system tongue of human volunteers. The data set is described as follows: Cooling sensations when applied to the tongue of human volunteers. The class given is in vivo. To be noted: for Duration of Action: duration of the cooling action on the tongue; for Relative Potency: reciprocal of threshold, normalized to unity for analogs with 1.25 μg/ml; for Threshold: threshold for producing cooling sensations on the tongue of human volunteers. The method, then:
as §1

Another data set has as its system conjunctivitis. Nature of the data set: Eye drops in subjects with allergic conjunctivitis. It is filed as in vivo, human. To be noted: for stinging sensations: 0.1% solution, medial canthus/closed eye, about every 8 hours. The text has this:
A subject, suffered from seasonal allergy. During the months of March through May, they would wake up in the morning sneezing, with a runny nose, and itchy eyes. The rhinitis, nasal congestion and obstruction were relieved to some extent by taking a Claritin® antihistamine tablet, but the symptoms of itchy, tearing, and red eyes were not. This individual applied, by the medial canthus/closed eye method in which they had been instructed, several drops of a 0.1% solution disec-butyl-n-pentyl-phosphine oxide ophthalmic eye drop solution, into each eye about every 8 hours for two days. […] They felt more clear-sighted and vigilant, and was of the opinion that the eye drops had therapeutic value for their conjunctivitis. Similar results were obtained with 3 additional subjects suffering from ocular allergies. A subject, suffered from perennial rhinitis that was aggravated by sinusitis, nasal surgery, and a prolonged course of antibiotics. They developed a generalized allergic condition with severe itchy rash on their back, dermatitis on their face (especially on their cheeks), and had itchy, puffy and red eyes. This individual applied, by the medial canthus/closed eye method in which they had been instructed, several drops of a 0.1% solution disec-butyl-pentyl-phosphine oxide ophthalmic solution into each eye for about every 8 hours for three days. […] The subject was of the opinion that the eye drops had therapeutic value for their conjunctivitis.

Data set [2] has as its system medial canthus of the eyelids. Nature of the data set: Sensory quality of the solution on the medial canthus of the eyelids / eye surface. To be noted: solution applied on the medial canthus of the eyelids. The class given is in vivo, human. The text has this: [table] In selecting a particular analog, it is desirable to have one that has a long duration of action (several hours) and minimal stinging and burning sensations. These parameters are not predicted by the cooling effect of these substances on the human tongue, but must be determined by experiment. […] Thus, the hexyl analog is the preferred therapeutic of the two. The other particularly preferred analogs that have the desired qualities of long duration of action and absence of stinging and burning effects are identified with an asterisk in Table 1.

For another data set, the system named is skin of upper eyes. The data set is described as follows: Application to skin of the upper eyes by swabstick (eye strain, contact lens user). It is filed as in vivo, human. The procedure:
Another modification of drug delivery was discovered. […] Example 4 notes that topical application of a 5% solution of a trialkyl phosphine oxide dissolved in pure propylene glycol produces robust cooling when applied in this manner.
A subject was stuck in traffic for over 2 hours on a hot and sunny (95° to 97° F.) day in an old car without air-conditioning. They were a user of soft contact lenses. […] They wanted to go on-line to work on a database project, but their eyestrain hindered their ability to focus. They volunteered to apply onto the skin of their upper eyes a 5% solution of disec-butyl-n-hexyl-phosphine oxide dissolved in 100% propylene glycol. A cotton swabstick was used to dab the solution onto the surfaces of the skin with extra care not touch the margins of the eyelids or eye surface. After drug application, a robust cooling sensation developed in the eyes that lasted for about 3 hours. […] They also reported that they felt more alert and energetic.

For a further data set, the system named is ocular pain. The data set is described as follows: Eye drops for ocular pain after refractive eye surgery (LASIK). It is filed as in vivo, human. The source says: A subject, underwent bilateral refractive eye surgery (LASIK) for myopia in order to maintain their qualifications for special duties in the military. On the first day after surgery their eye surfaces and eyelids were bright red from dilated and enlarged blood vessels, but there was little pain. However, on the second day, the individual suffered excruciating pain from their eyes that was incapacitating and prevented them from going to work. This individual volunteered to apply eye drops of a 0.05% solution disec-butyl-n-hexyl-phosphine oxide ophthalamic into each eye for about every 6 hours for three days. They were instructed on how to instill the eye drops into the nasal corner (medial canthus) of their closed eyes and how to avoid the initial discomforts of the solution. […] They felt much better and was of the opinion that the eye drops had therapeutic value for ocular pain.

The next data set has as its system dry eyes. The data set is described as follows: Eye drops in contact lens user with dry eyes. To be noted: 0.2% solution with 0.5% carboxymethylcellulose. It is filed as in vivo, human. The text has this:
The subject of example 4 is a daily user of disposable soft contact lenses, has “dry eyes”, and is a constant user of Refresh Eyes®, an artificial tears solution with 0.5% carboxymethylcellulose stored in a unit dispenser. They were instructed on how to instill the eye drops into the nasal corner (medial canthus) of their closed eyes and how to avoid the initial discomforts of the solution. The subject, who is an internationally-ranked tennis player, volunteered to self-administer, by the medial canthus/closed eye method, a 0.2% solution disec-butyl-n-hexyl-phosphine oxide ophthalmic solution containing 0.5% carboxymethylcellulose.

Data set [3] concerns closed eyes of volunteers. The data set is described as follows: Eye drops applied to medial canthus of closed eyes, kept closed about 1 min. The class given is in vivo, human. The procedure: (§2) For trialkyl phosphine oxide eye drop solutions of this invention, I have discovered an indirect method of application as follows. The eye dropper is aimed at the medial canthus (nasal corner) of the eye, the eye is then closed, the dispenser is squeezed to emit the eye drops, and the eye kept closed for about 1 min. This method of application can substantially avoid stinging and burning sensations. Apparently, the adaptation period of about 1 min allows the sensory processes to develop tolerance to the initial stinging and burning stimuli. For example, if a 0.4 mg/ml solution of disec-butyl, n-hexyl-phosphine oxide [synonym, 1-(Di-sec-butyl-phosphinoyl)-hexane] in isotonic-buffered saline is dropped on the open eye, it causes stinging and burning for about 1 min. However, applied onto the corners of the eye, with the eyes closed for 1 min, these stinging and burning sensations are avoided. The medial canthus is preferred to the lateral canthus because the geometry of the orbit permits a longer residence time for the eye drop applied to the medial corner. Drops applied to the lateral canthus are less precisely located and rapidly dribble off the zygoma (cheekbone). A user can be instructed in this indirect method by including the instructions on packaging labels and/or inserts associated with the doses.
The solution, as in Example 1, was then used by another three subjects with the instruction to apply the droplets to the nasal corner of the eye (medial canthus), without touching the tip of the dispenser to the eyelid surface, to let the solution seep into the eyelids and eye surface but to keep eyes closed for at least one minute. The subjects reported slight sensations of stinging when the eyes were opened, effects that lasted for less than 1 minute, followed by sensations of coolness and comfort lasting at least two hours. The experiment was then repeated, but with a higher concentration of 0.2% of disec-butyl-n-hexyl-phosphine oxide.
(§3) A 0.2% (2.0 mg/ml) disec-butyl-n-heptyl-phosphine oxide eye drop solution was prepared by adding the compound to an isotonic solution of sodium chloride, 0.65% in deionized water, monobasic potassium phosphate/sodium hydroxide buffer, preserved with disodium EDTA and benzalkonium chloride. The liquid was individually aliquoted into a ¼ oz. bottle with a Yorker spout (E.D. Luce Packaging) suitable for droplet delivery. This solution was then applied to the closed eyes of three volunteers, with two to three drops of the solution applied to each eye. The subjects complained of stinging and burning sensations on the eye surface, lasting for about 2 min. A series of six solutions were then prepared in which six different hydrocarbon polyols were added to the parent 0.2% solution. The individual additions were 1.5% sucrose, 1.5% fructose, 1.5% dextrose, 1.5% lactose, 1.5% inositol, or 0.5% carboxymethylcellulose. […] There was some tearing, but no evidence of increased eye redness from the hydrocarbon polyols and subjective complaints of discomfort were minimal.

The subject of data set [4] is opened eyes of volunteers. The data set is described as follows: Eye drops applied directly to the opened eyes of volunteers. The class given is in vivo, human. The procedure:
as §2
A 0.05% (0.5 mg/ml) disec-butyl-n-hexyl-phosphine oxide eye drop solution was prepared by adding the compound to an isotonic solution of sodium chloride, 0.65% in deionized water, monobasic potassium phosphate/sodium hydroxide buffer, preserved with disodium EDTA and benzalkonium chloride. The liquid was individually aliquoted into a ¼ oz. bottle with a Yorker spout (E.D. Luce Packaging) suitable for droplet delivery. This solution was applied to the opened eyes of three volunteers, with two to three drops of the solution applied to each eye. The subjects complained of stinging and burning sensations on the eye surface, lasting for about 2 min and requiring the subjects to shut their eyes. […]

Data set [5] concerns stinging and burning sensations on the eye. The data set is described as follows: Adjuncts to reduce stinging of trialkyl phosphine oxide eye drops. It is filed as in vivo, human. The settings on record: in vivo. The method, then: I conclude that hydrocarbon polyols are useful adjuncts for preparing a therapeutic formulation of a trialkyl phosphine oxide eye drop solution.
as §3

Data set [6] has the same test system. The description is as above. It is filed as in vivo, human. The settings on record: in vivo. The source holds these as a separate data set.
[7] abbreviates: 0.1% solution every 8 hours for two days, seasonal allergy.
Setting [8] is: 0.2% solution, medial canthus/closed eye.

Marks after values point to notes of the source that are not given here.

For `CCCCCP(=O)(C(C)CC)C(C)CC` (centres unmarked) [n-C5H11 / sec-C4H9 / sec-C4H9, disec-butyl-n-pentyl-phosphine oxide], the “Eye Therapy” value with eye disorders is 60* μg/ml. Further, in data set [1], the “Duration of Action” value stood at 10 min, the “Relative Potency” value is given as 1 and the Threshold was 1.25 µg/mL. For the same compound, the “effect on eye discomfort” value in the data set with conjunctivitis (0.1% solution every 8 hours for three days, generalized allergic condition) is “relief of discomfort”. Besides, in the data set with conjunctivitis (setting [7]), the itching entry is on record as “substantially reduced” and the redness result was “diminished”. Further, the stinging sensations entry in the data set with conjunctivitis was “initial mild sensation of “stinging””. The stinging sensations result in the data set with conjunctivitis (listed as disec-butyl-pentyl-phosphine oxide) is “No significant stinging sensations”. In data set [2], the “Sensory Quality” value is on record as “cool only”.

`CCCCCCP(=O)(C(C)CC)C(C)CC` (centres unmarked) [n-C6H13 / sec-C4H9 / sec-C4H9, 1-(Di-sec-butyl-phosphinoyl)-hexane]: in the data set on eye disorders, the “Eye Therapy” value was 45 µg/mL. Moreover, in [1], the “Duration of Action” value is recorded as 20 min, the “Relative Potency” value stood at 1 and the Threshold was 1.25 µg/mL. In addition, the “potency on the human tongue (comparison of the two analogs)” value in data set [1] (hexyl vs heptyl analog) is recorded as “about equipotent”. The “duration of robust cooling sensation in the eyes” value with skin of upper eyes (5% solution in 100% propylene glycol dabbed on skin of upper eyes, one subject) is reported as “about 3 hours”. Besides, the “effect on eye fatigue, irritation and discomfort” value with skin of upper eyes (5% solution in 100% propylene glycol on skin of upper eyes) was “alleviated their sense of eye fatigue, irritation, and discomfort”. For the same compound, the adverse effects result with ocular pain (0.05% solution about every 6 hours for three days after LASIK) is “no significant adverse effects”. The “acute pain from the eye surface” value with ocular pain (0.05% solution about every 6 hours for three days, second day after LASIK, medial canthus/closed eye) is “significantly diminished within minutes”. Besides, in the data set with dry eyes, the “effect on eye dryness (subject's opinion)” value is recorded as “useful to alleviate eye dryness” and the tearing entry was “no increased tearing”. In the data set with dry eyes (medial canthus/closed eye, one subject), the reported sensations entry is “slight tingling in their eyelids followed by refreshing sensations in their eyelids and eye surface”. Further, the “stinging and burning sensations” value in data set [3] (0.4 mg/ml applied onto corners of the eye, eyes closed for 1 min) is recorded as “avoided”. Besides, the “duration of slight stinging when eyes were opened” value in data set [3] (0.05% solution, medial canthus, eyes closed at least one minute, three subjects) is on record as “less than 1 minute”. Moreover, in data set [3] (0.05% solution, medial canthus/closed eye), the “duration of sensations of coolness and comfort” value is on record as “at least two”. In data set [3] (setting [8]), the “sensations of stinging and burning vs 0.05%” value is on record as “slightly increased”; the “tearing, irritation or redness” value is on record as “no signs of tearing was observed, nor of signs of irritation or redness”. The “duration of stinging and burning” value in data set [4] (0.4 mg/ml in isotonic-buffered saline dropped on the open eye) is given as “about 1 min”. In data set [4] (0.05% (0.5 mg/ml) solution, 2-3 drops, opened eyes, three volunteers), the “duration of stinging and burning sensations on the eye surface” value is “about 2 min”. In data set [4] (0.05% solution, opened eyes), the “redness / vasodilatation on eye surface or eyelids” value is “no evidence of increased redness”. In addition, the “Sensory Quality” value in [2] was “cool/sting”.

Regarding `OC[C@H]1O[C@@](CO)(O[C@H]2O[C@H](CO)[C@@H](O)[C@H](O)[C@H]2O)[C@@H](O)[C@@H]1O` [sucrose], the “effect of adjunct on initial stinging sensations” value in data set [5] is “reduce the initial stinging sensations”. Besides, the “effect of adjunct on stinging and burning sensations of several trialkyl phosphine oxide solutions” value in data set [6] is given as “substantially reduced”.

Turning to carboxymethylcellulose, the “effect of adjunct on initial stinging sensations” value in data set [5] was “reduce the initial stinging sensations”. In addition, the “effect of adjunct on stinging and burning sensations of several trialkyl phosphine oxide solutions” value in data set [6] is “substantially reduced”.
